The source of these data is article PMC5218480 (PLoS ONE, 2017).

This assay concerns MV-4-11 cells. Description: Gene expression microarray analysis (Affymetrix PrimeView) and GSEA. As to conditions: MV-4-11 cells, 48 hours. It is filed as cell-based, human. On the set-up: RFU PODN (11730768_x_at) / Fold change /veh PODN (11730768_x_at) / RFU LINC00158 (11744669_a_at) / Fold change /veh LINC00158 (11744669_a_at) / RFU DUSP10 (11751237_a_at) / Fold change /veh DUSP10 (11751237_a_at) / RFU ID3 (11757404_x_at) / Fold change /veh ID3 (11757404_x_at) / RFU PLEKHG5 (11737974_s_at) / Fold change /veh PLEKHG5 (11737974_s_at) / RFU LRRC4B (11730491_at) / Fold change /veh LRRC4B (11730491_at) / RFU GIMAP4 (11747438_a_at) / Fold change /veh GIMAP4 (11747438_a_at) / RFU KRT8 (11758183_x_at) / Fold change /veh KRT8 (11758183_x_at) / RFU CNN1 (11734310_a_at) / Fold change /veh CNN1 (11734310_a_at) / RFU VPS37D (11726825_at) / Fold change /veh VPS37D (11726825_at) / RFU C10orf10 (11716522_x_at) / Fold change /veh C10orf10 (11716522_x_at) / RFU KIR2DL2 /// KIR2DL4 /// KIR2DL5A /// KIR2DL5B /// KIR2DS1 /// KIR2DS2 /// KIR2DS3 /// KIR2DS4 /// KIR3DL3 /// KIR3DL3 /// KIR3DS1 (11738374_at) / Fold change /veh KIR2DL2 /// KIR2DL4 /// KIR2DL5A /// KIR2DL5B /// KIR2DS1 /// KIR2DS2 /// KIR2DS3 /// KIR2DS4 /// KIR3DL3 /// KIR3DL3 /// KIR3DS1 (11738374_at) / RFU C1QL1 (11718748_at) / Fold change /veh C1QL1 (11718748_at) / RFU TMPRSS4 (11747572_a_at) / Fold change /veh TMPRSS4 (11747572_a_at) / RFU HAMP (11756126_x_at) / Fold change /veh HAMP (11756126_x_at) / RFU RNFT2 (11725882_a_at) / Fold change /veh RNFT2 (11725882_a_at) / RFU NR4A2 (11747474_a_at) / Fold change /veh NR4A2 (11747474_a_at) / RFU ABCC12 (11746883_a_at) / Fold change /veh ABCC12 (11746883_a_at) / RFU TMEM136 (11760407_x_at) / Fold change /veh TMEM136 (11760407_x_at) / RFU CLDN22 /// WWC2 (11732394_at) / Fold change /veh CLDN22 /// WWC2 (11732394_at) / RFU HLA-DPB1 (11760878_x_at) / Fold change /veh HLA-DPB1 (11760878_x_at) / RFU SPINT1 (11716480_a_at) / Fold change /veh SPINT1 (11716480_a_at) / RFU GAP43 (11754022_s_at) / Fold change /veh GAP43 (11754022_s_at) / RFU A4GNT (11735810_at) / Fold change /veh A4GNT (11735810_at) / RFU PRB3 (11715151_x_at) / Fold change /veh PRB3 (11715151_x_at) / RFU TUBB4B (11761932_at) / Fold change /veh TUBB4B (11761932_at) / RFU CAPN14 (11732068_a_at) / Fold change /veh CAPN14 (11732068_a_at) / RFU TMCC2 (11721928_a_at) / Fold change /veh TMCC2 (11721928_a_at) / RFU IRGQ (11745062_a_at) / Fold change /veh IRGQ (11745062_a_at) / RFU FAM174B (11720279_a_at) / Fold change /veh FAM174B (11720279_a_at) / RFU TMPRSS4 (11748680_a_at) / Fold change /veh TMPRSS4 (11748680_a_at) / RFU FAM212B (11763350_a_at) / Fold change /veh FAM212B (11763350_a_at) / RFU PLEKHG5 (11743358_a_at) / Fold change /veh PLEKHG5 (11743358_a_at) / RFU ZSCAN30 (11745921_a_at) / Fold change /veh ZSCAN30 (11745921_a_at) / RFU CMKLR1 (11741424_a_at) / Fold change /veh CMKLR1 (11741424_a_at) / RFU LOC101060620 /// MAPK8IP1 (11723275_at) / Fold change /veh LOC101060620 /// MAPK8IP1 (11723275_at) / RFU SPTSSB (11747773_x_at) / Fold change /veh SPTSSB (11747773_x_at) / RFU PRSS12 (11739890_at) / Fold change /veh PRSS12 (11739890_at) / RFU BIN1 (11741810_x_at) / Fold change /veh BIN1 (11741810_x_at) / RFU WNT11 (11732464_a_at) / Fold change /veh WNT11 (11732464_a_at) / RFU C10orf10 (11716521_a_at) / Fold change /veh C10orf10 (11716521_a_at) / RFU C5orf56 (11738089_at) / Fold change /veh C5orf56 (11738089_at) / RFU CYB561 (11721691_x_at) / Fold change /veh CYB561 (11721691_x_at) / RFU ANKRD19P (11752326_a_at) / Fold change /veh ANKRD19P (11752326_a_at) / RFU OR2T12 /// OR2T33 /// OR2T8 (11738714_s_at) / Fold change /veh OR2T12 /// OR2T33 /// OR2T8 (11738714_s_at) / RFU VCAN (11748164_a_at) / Fold change /veh VCAN (11748164_a_at) / RFU JSRP1 (11732532_at) / Fold change /veh JSRP1 (11732532_at) / RFU KRTAP10-11 (11738290_x_at) / Fold change /veh KRTAP10-11 (11738290_x_at) / RFU MYO3A (11730013_a_at) / Fold change /veh MYO3A (11730013_a_at) / RFU EBF3 (11725865_a_at) / Fold change /veh EBF3 (11725865_a_at) / RFU CAMK2N1 (11719241_x_at) / Fold change /veh CAMK2N1 (11719241_x_at) / RFU C5orf56 (11738088_a_at) / Fold change /veh C5orf56 (11738088_a_at) / RFU OLFML3 (11715873_a_at) / Fold change /veh OLFML3 (11715873_a_at) / RFU LOC100653217 /// NTM (11731650_a_at) / Fold change /veh LOC100653217 /// NTM (11731650_a_at) / RFU MAPK11 (11762145_a_at) / Fold change /veh MAPK11 (11762145_a_at) / RFU FIZ1 (11724087_x_at) / Fold change /veh FIZ1 (11724087_x_at) / RFU OASL (11726364_x_at) / Fold change /veh OASL (11726364_x_at) / RFU SOX15 (11748057_x_at) / Fold change /veh SOX15 (11748057_x_at) / RFU CD79A (11719716_a_at) / Fold change /veh CD79A (11719716_a_at) / RFU HIST1H1D (11736915_at) / Fold change /veh HIST1H1D (11736915_at) / RFU CASKIN2 (11723855_a_at) / Fold change /veh CASKIN2 (11723855_a_at) / RFU LOC730098 (11760151_x_at) / Fold change /veh LOC730098 (11760151_x_at) / RFU OR4N2 (11742367_at) / Fold change /veh OR4N2 (11742367_at) / RFU PRRT2 (11749266_a_at) / Fold change /veh PRRT2 (11749266_a_at) / RFU SNX32 (11753110_a_at) / Fold change /veh SNX32 (11753110_a_at) / RFU CDHR5 (11726645_a_at) / Fold change /veh CDHR5 (11726645_a_at) / RFU RCAN1 (11760418_a_at) / Fold change /veh RCAN1 (11760418_a_at) / RFU FAM167A (11723789_a_at) / Fold change /veh FAM167A (11723789_a_at) / RFU FAM26E (11764081_at) / Fold change /veh FAM26E (11764081_at) / RFU ISYNA1 (11749810_s_at) / Fold change /veh ISYNA1 (11749810_s_at) / RFU ACY1 (11761880_at) / Fold change /veh ACY1 (11761880_at) / RFU 11764098_at / Fold change /veh 11764098_at / RFU SAMD14 (11745864_x_at) / Fold change /veh SAMD14 (11745864_x_at) / RFU NPB (11741838_a_at) / Fold change /veh NPB (11741838_a_at) / RFU TMPRSS6 (11731388_a_at) / Fold change /veh TMPRSS6 (11731388_a_at) / RFU KRTAP10-2 (11738614_at) / Fold change /veh KRTAP10-2 (11738614_at) / RFU ARHGAP8 /// PRR5-ARHGAP8 (11727945_x_at) / Fold change /veh ARHGAP8 /// PRR5-ARHGAP8 (11727945_x_at) / RFU KRTAP5-7 /// NADSYN1 (11734609_at) / Fold change /veh KRTAP5-7 /// NADSYN1 (11734609_at) / RFU RASL12 (11751679_a_at) / Fold change /veh RASL12 (11751679_a_at) / RFU CDKN2B (11736163_a_at) / Fold change /veh CDKN2B (11736163_a_at) / RFU PRF1 (11729649_at) / Fold change /veh PRF1 (11729649_at) / RFU, ZNF638 /// ZNF638-IT1 / Fold change vs veh, ZNF638 /// ZNF638-IT1 / RFU, PANK3 / Fold change vs veh, PANK3 / RFU, SH3YL1 / Fold change vs veh, SH3YL1 / RFU, ZEB2 / Fold change vs veh, ZEB2 / RFU, NRIP1 / Fold change vs veh, NRIP1 / RFU, PTTG1IP / Fold change vs veh, PTTG1IP / RFU, CAPN2 / Fold change vs veh, CAPN2 / RFU, MED14 / Fold change vs veh, MED14 / RFU, SNORA58 / Fold change vs veh, SNORA58 / RFU, C1orf63 / Fold change vs veh, C1orf63 / RFU, LRRFIP1 / Fold change vs veh, LRRFIP1 / RFU, NDUFAF7 / Fold change vs veh, NDUFAF7 / RFU, SLC12A2 / Fold change vs veh, SLC12A2 / RFU, IBTK / Fold change vs veh, IBTK / RFU, ESF1 / Fold change vs veh, ESF1 / Fold change vs veh, TMEM50B / RFU, TAOK1 / Fold change vs veh, TAOK1 / RFU, ACBD3 / Fold change vs veh, ACBD3 / RFU, TMA16 / Fold change vs veh, TMA16 / RFU, RWDD3 / Fold change vs veh, RWDD3 / RFU, BCAT1 / Fold change vs veh, BCAT1 / RFU, EDEM3 / Fold change vs veh, EDEM3 / RFU, TMEM33 / Fold change vs veh, TMEM33 / RFU, WDR75 / Fold change vs veh, WDR75 / RFU, AHCTF1 / Fold change vs veh, AHCTF1 / RFU, TFRC / Fold change vs veh, TFRC / RFU, ZDHHC17 / Fold change vs veh, ZDHHC17 / RFU, NOM1 / Fold change vs veh, NOM1 / RFU, ARL8B / Fold change vs veh, ARL8B / RFU, ZBTB11 / Fold change vs veh, ZBTB11 / RFU, TAMM41 / Fold change vs veh, TAMM41 / RFU, KIAA1704 /// LOC100996395 / Fold change vs veh, KIAA1704 /// LOC100996395 / RFU, ING1 / Fold change vs veh, ING1 / RFU, TRMT61B / Fold change vs veh, TRMT61B / RFU, FUBP3 / Fold change vs veh, FUBP3 / RFU, TP53 / Fold change vs veh, TP53 / RFU, TNKS2 / Fold change vs veh, TNKS2 / RFU, ZFP14 / Fold change vs veh, ZFP14 / RFU, ACTR2 / Fold change vs veh, ACTR2 / RFU, PPP3R1 / Fold change vs veh, PPP3R1 / RFU, PIK3R1 / Fold change vs veh, PIK3R1 / RFU, HNRNPA1 / Fold change vs veh, HNRNPA1 / RFU, RNF170 / Fold change vs veh, RNF170 / RFU, ZNF28 / Fold change vs veh, ZNF28 / RFU, RNGTT / Fold change vs veh, RNGTT / RFU, OGT / Fold change vs veh, OGT / RFU, BRD1 / Fold change vs veh, BRD1 / RFU, MARS / Fold change vs veh, MARS / RFU, ZNF655 / Fold change vs veh, ZNF655 / RFU, FAHD1 / Fold change vs veh, FAHD1 / RFU, BDP1 / Fold change vs veh, BDP1 / RFU, LRRCC1 / Fold change vs veh, LRRCC1 / RFU, ARID1A / Fold change vs veh, ARID1A / RFU, ZNF146 / Fold change vs veh, ZNF146 / RFU, ZNF330 / Fold change vs veh, ZNF330 / RFU, GPN3 / Fold change vs veh, GPN3 / RFU, C9orf123 / Fold change vs veh, C9orf123 / RFU, N4BP2L2 / Fold change vs veh, N4BP2L2 / RFU, ARFIP1 / Fold change vs veh, ARFIP1 / RFU, FAM179B / Fold change vs veh, FAM179B / RFU, BCL10 / Fold change vs veh, BCL10 / RFU, UHRF1BP1L / Fold change vs veh, UHRF1BP1L / RFU, BET1 / Fold change vs veh, BET1 / RFU, CNOT2 / Fold change vs veh, CNOT2 / RFU, ZNF268 / Fold change vs veh, ZNF268 / Fold change vs veh, ZNF507 / RFU, DGCR2 / Fold change vs veh, DGCR2 / RFU, WDSUB1 / Fold change vs veh, WDSUB1 / Fold change vs veh, HSP90B1 /// MIR3652 / RFU, ADSS / Fold change vs veh, ADSS / RFU, GK / Fold change vs veh, GK / RFU, ZNF148 / Fold change vs veh, ZNF148 / RFU, TAF9 / Fold change vs veh, TAF9 / RFU, SLC1A5 / Fold change vs veh, SLC1A5 / RFU, SLMO2 / Fold change vs veh, SLMO2 / RFU, ABCC4 / Fold change vs veh, ABCC4 / RFU, LOC101060439 /// RAP1B / Fold change vs veh, LOC101060439 /// RAP1B / RFU, RFX7 / Fold change vs veh, RFX7 / RFU, GTPBP10 / Fold change vs veh, GTPBP10 / RFU, CNEP1R1 / Fold change vs veh, CNEP1R1 / RFU, BIVM-ERCC5 /// ERCC5 / Fold change vs veh, BIVM-ERCC5 /// ERCC5 / RFU, ILF3 / Fold change vs veh, ILF3 / RFU 11762660_at / Fold change /veh 11762660_at / RFU VCAN (11757783_s_at) / Fold change /veh VCAN (11757783_s_at) / RFU DDX43 (11728927_at) / Fold change /veh DDX43 (11728927_at) / RFU KRT8 (11758188_x_at) / Fold change /veh KRT8 (11758188_x_at) / RFU NKD1 (11759106_at) / Fold change /veh NKD1 (11759106_at) / RFU SRD5A1 (11742802_a_at) / Fold change /veh SRD5A1 (11742802_a_at) / RFU TPSAB1 /// TPSB2 (11721975_s_at) / Fold change /veh TPSAB1 /// TPSB2 (11721975_s_at) / RFU GSTM3 (11746129_a_at) / Fold change /veh GSTM3 (11746129_a_at) / RFU IL23R (11737362_x_at) / Fold change /veh IL23R (11737362_x_at) / RFU TMEM51 (11727254_a_at) / Fold change /veh TMEM51 (11727254_a_at) / RFU PIWIL2 (11732686_x_at) / Fold change /veh PIWIL2 (11732686_x_at) / RFU ORM1 (11744905_x_at) / Fold change /veh ORM1 (11744905_x_at) / RFU CCDC152 (11743942_at) / Fold change /veh CCDC152 (11743942_at) / RFU ECM1 (11717891_a_at) / Fold change /veh ECM1 (11717891_a_at) / RFU IL23R (11748794_a_at) / Fold change /veh IL23R (11748794_a_at) / RFU TNFAIP8L3 (11732012_x_at) / Fold change /veh TNFAIP8L3 (11732012_x_at) / RFU MBOAT4 (11741988_at) / Fold change /veh MBOAT4 (11741988_at) / RFU 11764193_at / Fold change /veh 11764193_at / RFU TMEM53 (11763286_at) / Fold change /veh TMEM53 (11763286_at) / RFU MAGEB2 (11727129_at) / Fold change /veh MAGEB2 (11727129_at) / RFU TMEM200A (11744735_a_at) / Fold change /veh TMEM200A (11744735_a_at) / RFU CCDC152 (11751479_a_at) / Fold change /veh CCDC152 (11751479_a_at) / RFU FAM211A (11726209_a_at) / Fold change /veh FAM211A (11726209_a_at) / RFU RGS16 (11746705_a_at) / Fold change /veh RGS16 (11746705_a_at) / RFU VCAN (11755009_s_at) / Fold change /veh VCAN (11755009_s_at) / RFU RHOB (11743442_s_at) / Fold change /veh RHOB (11743442_s_at) / RFU RGS16 (11720943_a_at) / Fold change /veh RGS16 (11720943_a_at) / RFU RGS16 (11720944_at) / Fold change /veh RGS16 (11720944_at) / RFU, VPS4B / Fold change vs veh, VPS4B / RFU, CREB1 / Fold change vs veh, CREB1 / RFU, DNAJC13 / Fold change vs veh, DNAJC13 / RFU, GNAQ / Fold change vs veh, GNAQ / RFU, CDK5R1 / Fold change vs veh, CDK5R1 / RFU, ZRANB3 / Fold change vs veh, ZRANB3 / RFU, CUL4A / Fold change vs veh, CUL4A / RFU, CCNY / Fold change vs veh, CCNY / RFU, UFL1 / Fold change vs veh, UFL1 / RFU, COG3 / Fold change vs veh, COG3 / RFU, DIAPH2 / Fold change vs veh, DIAPH2 / RFU, SKA2 / Fold change vs veh, SKA2 / RFU, AFF3 / Fold change vs veh, AFF3 / RFU, LMF1 / Fold change vs veh, LMF1 / RFU, IPO11 / Fold change vs veh, IPO11 / RFU, DFFB / Fold change vs veh, DFFB / RFU, FOXP1 / Fold change vs veh, FOXP1 / RFU, CARD8 / Fold change vs veh, CARD8 / RFU, STRN3 / Fold change vs veh, STRN3 / RFU, ADK / Fold change vs veh, ADK / RFU, RASSF2 / Fold change vs veh, RASSF2 / RFU, WIPF1 / Fold change vs veh, WIPF1 / RFU, LARP1B / Fold change vs veh, LARP1B / RFU, RASA1 / Fold change vs veh, RASA1 / RFU, RB1 / Fold change vs veh, RB1 / RFU, PPFIA1 / Fold change vs veh, PPFIA1 / RFU, MAT2A / Fold change vs veh, MAT2A / RFU, CCT5 / Fold change vs veh, CCT5 / RFU, WDR92 / Fold change vs veh, WDR92 / RFU, CUX1 / Fold change vs veh, CUX1 / RFU, TTC7A / Fold change vs veh, TTC7A / RFU, TMEM135 / Fold change vs veh, TMEM135 / RFU, DEPTOR / Fold change vs veh, DEPTOR / RFU, CPM / Fold change vs veh, CPM / RFU, DNAJB6 / Fold change vs veh, DNAJB6 / RFU, CACNA2D3 / Fold change vs veh, CACNA2D3 / RFU, DTX4 / Fold change vs veh, DTX4 / RFU, TFCP2 / Fold change vs veh, TFCP2 / RFU, GMCL1 /// GMCL1P1 / Fold change vs veh, GMCL1 /// GMCL1P1 / RFU, AEBP2 / Fold change vs veh, AEBP2 / RFU, SNHG1 /// SNORD22 /// SNORD25 /// SNORD26 /// SNORD27 /// SNORD28 /// SNORD29 /// SNORD31 / Fold change vs veh, SNHG1 /// SNORD22 /// SNORD25 /// SNORD26 /// SNORD27 /// SNORD28 /// SNORD29 /// SNORD31 / Fold change (Aza/veh), C12orf56 (ProbeSet 11735607_a_at) / Fold change (ACY-1035/veh), C12orf56 (ProbeSet 11735607_a_at) / Fold change (Aza/veh), FGFR1OP (ProbeSet 11751329_s_at) / Fold change (ACY-1035/veh), FGFR1OP (ProbeSet 11751329_s_at) / Fold change (Aza/veh), VPS36 (ProbeSet 11739960_a_at) / Fold change (ACY-1035/veh), VPS36 (ProbeSet 11739960_a_at) / RFU SYPL1 (11715823_x_at) / Fold change /veh SYPL1 (11715823_x_at) / RFU IGFBP7 (11715501_s_at) / Fold change /veh IGFBP7 (11715501_s_at) / RFU REEP3 (11722064_at) / Fold change /veh REEP3 (11722064_at) / RFU IGLL1 (11728026_x_at) / Fold change /veh IGLL1 (11728026_x_at): dose or concentration left out as unconfirmed.

For the compound `Nc1ccc(-c2cccs2)cc1NC(=O)c1ccc2c(c1)cc(C1CC1)n2CCN1CCOCC1` [ACY-1035], the “RFU RGS16 (11720944_at)” value worked out at 40.38 RFU.
